Reference: patent US11273176B2, “Use of PLA2G5-deficient suppressive macrophages in suppression of inflammation” (THE BRIGHAM AND WOMEN'S HOSPITAL, INC., priority 2016, dated 2022)

What was measured:
C57/BL6 Wt mice = assay: IL-33-induced pulmonary inflammation (intranasal r-IL-33 with or without LA/OA) in Wt mice; format: in vivo, mouse; conditions: for pulmonary inflammation: agent given alone
Protocol: (§1) C57/BL6 Wt and Pla2g5-null mice^46, 47 (9-12 wk-old males) received 25 μg of Alternaria haracter extract (Greer Laboratories, Lenoir, N.C.) in 20 uL of PBS or PBS alone intranasally on days 0, 3, 6 and 9 and euthanized 18 hours later^1 or a single dose of 100 μg and were euthanized after 1 h or 3 h^2. For IL-33-induced pulmonary inflammation, Wt and Pla2g5-null naïve mice were given mouse rIL-33 (R&D Systems, Minneapolis, Minn.) intranasally (i.n.) 100 ng/dose on days 0, 3, 6 and 9 with or without LA (132 nM)^28 or OA (106 nM), and mice were euthanized 18 hours after the last dose.
(§2) Lung were manually chopped to approximately 10 mm pieces, then digested in RPMI containing 428 U/ml Collagenase IV (Worthington, Lakewood, N.J.) and 20 mg/ml DNAse I (Roche, Mannheim, Germany) (30 min, 37° C.). After red cell lysis, the obtained cell suspension from single mouse was washed, and counted. After washing, cells were blocked (1 h, 4° C.) with 1% of rat anti mouse CD16/CD32 (BD Biosciences, San Jose, Calif.) and 10% donkey serum and then stained (1 h, 4° C.) with appropriate Abs. Mouse cells were stained with CD45 PercPCy5 (clone 30-F11, BioLegend, San Diego, Calif.), CD19 FITC (6D5, Biolegend), CD3 FITC (145-2C11, BioLegend), CD11b FITC (M1/70, BioLegend), CD11c PE-Cy7 FITC (N418, BioLegend), Ly6G/C FITC (RB6-8C5, eBiosciences), Nk1.1 FITC (PK136, Biolegend), FceR1 FITC (MAR-1, Biolegend), Siglec-F APC (E50-2440, BD Bioscience), Thy 1.2 APC (53-2.1, eBioscience, San Diego, Ca), ICOS (C398.4A, eBiosciences), Sca-1 (D7, eBioscieces), CD25 (PC61, eBiosciences), ST2 biotin (clone DJ8, MD Bioscience) followed by PE streptavidin (eBiosciences). In selected experiments cells were fixed with 4% paraformaldehyde (7 min, 21° C.), washed, permeabilized with 0.1% saponin (SigmaAldrich, St Louis, Ca) (7 min, 21° C.) and stained with CD68 APC (FA-11, AbD Serotec, Raleigh, Nc), IL-5 PE (TRFKS, Biolegend), IL-13 (eBio13A eBiosciences), IL-33 PE (396118, R&D Systems, Minneapolis, Minn.), rabbit polyclonal anti murine RELM-a (Peprotech, Rocky Hill N.J.)) and corresponding isotypes as controls. Acquisition was performed on a FACSCanto flow cytometer with FACSDiva software (BD Biosciences), and data were analyzed with FlowJo (Tree Star, Ashland, Oreg.).

Pla2g5-null mice = assay: IL-33-induced pulmonary inflammation (intranasal r-IL-33 with or without LA/OA) in Pla2g5-null mice; format: in vivo, mouse; conditions: for IL-33-induced eosinophilia (numbers of eosinophils), effect of FFA given with IL-33 / pulmonary inflammation: intranasal, 4 doses in 10 days; for pulmonary inflammation: agent given alone
Protocol: as §1, §2

Wt ILC2 = assay: In-vitro stimulation of sorted Wt ILC2, intracellular IL-5 by flow cytometry; format: cell-based, mouse; conditions: LA 200 μM, 8 h; for percentage of IL-5-expressing ILC2s: OA 200 μM or IL-33 30 ng/ml alone
Protocol: as §2
(§3) Wt and Pla2g5-null mice received four doses of 25 ug of Alternaria in 20 ul of PBS intranasally on day 0, 3, 6 and 9 and euthanized 18h later in order to expand ILC2 prior to FACs sorting. Sorting of ILC2 (CD45+ Lin− (CD3, CD19, Ly6g, CD11c, CD11b, Nk1.1, FcεR1^−), Thy1.2+) was performed using a FACSDiva 8.0.1 cell sorter (BD bio-science). Purified ILC2 (>98%) were rested for 40 hours with 10 ng/mL rIL-2 and rIL-7 (R&D Systems, Minneapolis, Minn.) in a 96 well around bottom plates (20000 cells per well). Prior to stimulation, the medium was changed to fresh medium. ILC2 were cultured with 30 ng/mL rIL-33 (R&D Systems), 200 μM Linoleic Acid (Cayman Chemical) or 200 μM Oleic Acid (Cayman Chemical)^22 or all together for 8h. For intracellular cytokine staining, 1 μl/mL of Golgi Plug (BD Bioscience) was added to ILC2 6h before collection for FACs analysis.

Pla2g5-null ILC2 = assay: In-vitro stimulation of sorted Pla2g5-null ILC2, intracellular IL-5 by flow cytometry; format: cell-based, mouse; conditions: LA 200 μM, 8 h; for percentage of IL-5-expressing ILC2s: OA 200 μM or IL-33 30 ng/ml alone; for IL-33-induced increase in IL-5 positive ILC2s, effect of FFA: OA 200 μM with IL-33 30 ng/ml
Protocol: as §2, §3

Molecule	pulmonary inflammation (C57/BL6 Wt mice; intranasal, 4 doses in 10 days)	IL-33-induced eosinophilia (numbers of eosinophils), effect of FFA given with IL-33 (Pla2g5-null mice)	pulmonary inflammation (Pla2g5-null mice)	percentage of IL-5-expressing ILC2s (Wt ILC2)	percentage of IL-5-expressing ILC2s (Pla2g5-null ILC2)	IL-33-induced increase in IL-5 positive ILC2s, effect of FFA (Pla2g5-null ILC2)	IL-33-induced eosinophilia (numbers of eosinophils), effect of FFA given with IL-33 (C57/BL6 Wt mice; intranasal, 4 doses in 10 days)	IL-33-induced expression of IL-5 by ILC2s, effect of FFA (Wt ILC2; OA 200 μM with IL-33 30 ng/ml)	numbers of eosinophils, ILC2s and Sca-1+ILC2 (C57/BL6 Wt mice; IL-33 i.n. over 10 days (100 ng/dose days 0, 3, 6, 9), homogenate lungs, flow cytometry)	macrophage activation (RELMα in macrophages) (C57/BL6 Wt mice; exogenous IL-33 for 10 days)	numbers of eosinophils, ILC2 and Sca-1+ILC2 (Pla2g5-null mice; IL-33 i.n. over 10 days, compared with Wt controls)	macrophage activation (RELMα in macrophages) (Pla2g5-null mice; exogenous IL-33 for 10 days)
CCCCCCCC/C=C\CCCCCCCC(=O)O [OA, oleic acid]	Neither LA nor OA alone caused pulmonary inflammation	substantially enhance	Neither LA nor OA alone caused pulmonary inflammation	Neither LA nor OA induced significant IL-5 expression	Neither LA nor OA induced significant IL-5 expression	inactive	–	–	–	–	–	–
CCCCC/C=C\C/C=C\CCCCCCCC(=O)O [LA, linoleic acid]	Neither LA nor OA alone caused pulmonary inflammation	failed to potentiate	Neither LA nor OA alone caused pulmonary inflammation	Neither LA nor OA induced significant IL-5 expression	Neither LA nor OA induced significant IL-5 expression	suppressed	sharp potentiation	significantly potentiated	–	–	–	–
IL-33: mouse rIL-33 (R&D Systems) given intranasally or added to ILC2 cultures (protein, UniProt Q8BVZ5 1-266, looked up) Interleukin-33: MRPRMKYSNSKISPAKFSSTAGEALVPPCKIRRSQQKTKEFCHVYCMRLRSGLTIRKETSYFRKEPTKRYSLKSGTKHEENFSAYPRDSRKRSLLGSIQAFAASVDTLSIQGTSLLTQSPASLSTYNDQSVSFVLENGCYVINVDDSGKDQEQDQVLLRYYESPCPASQSGDGVDGKKLMVNMSPIKDTDIWLHANDKDYSVELQRGDVSPPEQAFFVLHKKSSDFVSFECKNLPGTYIGVKDNQLALVEEKDESCNNIMFKLSKI	induces	–	insufficient	significantly increased	significantly increased	–	–	–	robustly increased	induced substantial macrophage activation	markedly diminished	markedly impaired
